Results on one molecule are retold here after US20260284127A1, “COMPOSITIONS OF […] CORDYCEPS AND METHODS OF DELIVERY FOR THE TREATMENT OF ACUTE AND LONG COVID” (priority 2023, published 2026).

The conditions of data set [1]: cited from earlier work.
Data set [2] has as its system CaCo2 cells. The class given is in vitro ADME. The note with it: 200 μg/ml cordycepin apical, pure solution. How it is done: Methods: Transepithelial wells with a 1 μm pore size and 0.3 cm^2 surface area were preincubated with DMEM-F12 media with 10% FBS and 10 μg/ml penicillin/streptomycin at 37° C. in 5% CO2 for one hour. CaCo2 cells in the same media were seeded at a density of 50,000 cells. The cells were maintained under these conditions throughout the experiment. Media was changed every 2 to 3 days, and TEER values were monitored from day 10 onward. At day 18, cells with TEER values exceeding 200 ohm/cm^2 were incubated in PAB buffer for 20 minutes: 1 ml in basolateral and 0.5 ml in apical side. Samples of 200 μg/ml cordycepin, and 200 μg/ml cordycepin in a standardized cordyceps extract were prepared in PAB buffer, which was exchanged for the apical buffer. Fifty microlitre samples of both apical and basolateral compartments were acquired initially and at 1 hour intervals. The samples were immediately added to 450 μl of methanol and quantified on an Agilent 4910 LC-mass spectrometer. Cordycepin was measured by direct injection in SMS mode and integrated values were compared against standard curves prepared in the same manner as test samples.

The conditions of data set [3]: given as a pure compound; cited from earlier work.
For data set [4], the system named is CaCo2. As to conditions: human, Caco-2; cited from earlier work.
The conditions of data set [5]: cordycepin after one oral dose of HAD-B1 formula; cited from earlier work.

Each structure is given as a SMILES string.

The half-life is the time in which the quantity being followed falls by half. With `Nc1ncnc2c1ncn2[C@@H]1O[C@H](CO)C[C@H]1O` [cordycepin, 3′-deoxyadenosine], in data set [1], the “experimental solubility in water” value was 1000 µg/mL. Also, in data set [2], the “cordycepin measured on the basal side” value is reported as “no detectable”. Moreover, the oral bioavailability entry in data set [3] was “extremely low”. Moreover, in data set [4], the CaCo2 permeability is listed as 1.1*10^−7 cm/s. Also, in data set [5], the half-life was 8.62 h and the “time to maximal concentration” value is 1.5 h.
